# Earlier results as cited in patent US8765940B2 (priority 2009, dated 2014).
# pIC50: −log10 of the molar value.
# Columns and labels:
# [1] = system: ovalbumin-induced airway inflammation; details: cited from earlier work
# protein kinases = details: cited from earlier work
# p110δ = p110δ (Homo sapiens (Human), UniProt O00329); details: cited from earlier work
# Class I PI 3-kinases = details: LY294002; read-out: IC50 values against each of these PI 3-kinases; cited from earlier work
# superoxide release = details: cited from earlier work
# neutrophil migration = details: cited from earlier work
# [2] = system: model of systemic lupus erythematosis; details: in vivo; cited from earlier work
# [3] = system: mouse model of rheumatoid arthritis; details: in vivo; cited from earlier work
# p110δ, sequence (O00329 whole entry, species assumed): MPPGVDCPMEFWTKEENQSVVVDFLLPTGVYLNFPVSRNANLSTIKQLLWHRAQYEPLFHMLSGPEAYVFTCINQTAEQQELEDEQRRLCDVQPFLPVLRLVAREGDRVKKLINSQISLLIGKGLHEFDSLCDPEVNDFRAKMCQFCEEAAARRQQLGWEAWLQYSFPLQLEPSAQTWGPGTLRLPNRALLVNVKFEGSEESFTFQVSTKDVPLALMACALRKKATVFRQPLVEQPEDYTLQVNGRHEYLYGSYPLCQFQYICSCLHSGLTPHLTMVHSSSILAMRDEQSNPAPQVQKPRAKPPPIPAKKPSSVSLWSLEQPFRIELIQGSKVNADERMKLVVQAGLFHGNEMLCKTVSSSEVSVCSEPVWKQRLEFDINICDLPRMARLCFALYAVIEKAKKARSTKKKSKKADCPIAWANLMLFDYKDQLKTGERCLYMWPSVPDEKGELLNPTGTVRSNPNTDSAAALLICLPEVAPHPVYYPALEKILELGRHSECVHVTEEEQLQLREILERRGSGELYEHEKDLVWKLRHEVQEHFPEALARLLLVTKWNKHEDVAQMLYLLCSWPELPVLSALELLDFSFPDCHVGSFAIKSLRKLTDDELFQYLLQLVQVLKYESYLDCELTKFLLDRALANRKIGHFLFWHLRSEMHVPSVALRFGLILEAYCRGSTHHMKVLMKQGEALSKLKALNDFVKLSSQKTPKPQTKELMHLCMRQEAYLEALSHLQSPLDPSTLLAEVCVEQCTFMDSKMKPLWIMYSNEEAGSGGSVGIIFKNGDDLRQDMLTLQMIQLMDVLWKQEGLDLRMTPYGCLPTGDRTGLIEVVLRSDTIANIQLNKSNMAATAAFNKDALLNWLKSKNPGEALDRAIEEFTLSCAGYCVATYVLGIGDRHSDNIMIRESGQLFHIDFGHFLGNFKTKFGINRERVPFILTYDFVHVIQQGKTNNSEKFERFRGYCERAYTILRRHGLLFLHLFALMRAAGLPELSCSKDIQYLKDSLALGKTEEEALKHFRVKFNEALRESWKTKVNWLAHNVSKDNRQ
# p110δ, sequence (P27986 whole entry partner, species assumed): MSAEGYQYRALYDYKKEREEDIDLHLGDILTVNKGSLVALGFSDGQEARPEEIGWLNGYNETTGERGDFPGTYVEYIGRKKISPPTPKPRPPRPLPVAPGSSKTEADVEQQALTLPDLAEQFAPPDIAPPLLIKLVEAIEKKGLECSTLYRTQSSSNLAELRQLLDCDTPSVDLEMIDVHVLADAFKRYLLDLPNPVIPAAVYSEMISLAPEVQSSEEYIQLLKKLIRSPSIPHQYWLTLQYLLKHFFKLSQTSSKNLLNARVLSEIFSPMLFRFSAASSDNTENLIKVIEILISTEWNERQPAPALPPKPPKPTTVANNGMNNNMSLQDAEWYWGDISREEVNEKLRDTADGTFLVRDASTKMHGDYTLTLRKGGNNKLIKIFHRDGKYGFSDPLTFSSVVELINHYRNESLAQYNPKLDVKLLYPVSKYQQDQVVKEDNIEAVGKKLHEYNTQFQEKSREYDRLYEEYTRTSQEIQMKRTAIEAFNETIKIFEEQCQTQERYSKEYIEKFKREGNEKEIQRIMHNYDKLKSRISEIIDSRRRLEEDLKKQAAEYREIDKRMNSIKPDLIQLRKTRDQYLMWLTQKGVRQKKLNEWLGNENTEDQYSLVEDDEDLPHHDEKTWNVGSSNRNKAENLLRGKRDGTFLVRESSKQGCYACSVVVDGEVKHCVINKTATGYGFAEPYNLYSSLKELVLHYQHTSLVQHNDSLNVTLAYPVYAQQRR
smiles,measurement,setting,value
Cc1ccccc1-n1c(Cn2cnc3c(N)ncnc32)nc2cccc(C)c2c1=O [IC87114],inflammation and disease in a murine model of asthma,[1],significantly ameliorate inflammation and disease
same,activity against any protein kinases tested,protein kinases,no activity
same,inhibits p110δ,p110δ,high nanomolar range (triple digit)
O=c1cc(N2CCOCC2)oc2c(-c3ccccc3)cccc12 [LY294002],pIC50,Class I PI 3-kinases,~6.00
same,superoxide release,superoxide release,block
same,neutrophil migration,neutrophil migration,block
O=C1NC(=O)/C(=C\c2ccc3nccnc3c2)S1 [AS 605240],onset of disease in a model of systemic lupus erythematosis,[2],delay onset of disease
same,efficacy in a mouse model of rheumatoid arthritis,[3],efficacious
